In general, inhibition refers to the drop in the measured response relative to a control, in per cent.

Consider three molecules from ChEMBL document CHEMBL4118098, “Discovery of DS28120313 as a potent orally active hepcidin production inhibitor: Design and optimization of novel 4,6-disubstituted indazole derivatives” (Bioorg Med Chem Lett, 2017).

In experiment [1] the target is Serine/threonine-protein kinase Chk2 (Homo sapiens) (UniProt O96017). Kind of experiment: Inhibition of CHK2 (unknown origin) at 0.19 uM relative to control.
The target of experiment [2] is Serine/threonine-protein kinase BRSK1 (Homo sapiens) (UniProt Q8TDC3). Kind of experiment: Inhibition of BRSK1 (unknown origin) at 0.19 uM relative to control.
Experiment [3] deals with Tyrosine-protein kinase receptor UFO (Homo sapiens) (UniProt P30530). Kind of experiment: Inhibition of AXL (unknown origin) at 0.19 uM relative to control.
Sequence of Tyrosine-protein kinase receptor UFO (Homo sapiens) (P30530 whole entry): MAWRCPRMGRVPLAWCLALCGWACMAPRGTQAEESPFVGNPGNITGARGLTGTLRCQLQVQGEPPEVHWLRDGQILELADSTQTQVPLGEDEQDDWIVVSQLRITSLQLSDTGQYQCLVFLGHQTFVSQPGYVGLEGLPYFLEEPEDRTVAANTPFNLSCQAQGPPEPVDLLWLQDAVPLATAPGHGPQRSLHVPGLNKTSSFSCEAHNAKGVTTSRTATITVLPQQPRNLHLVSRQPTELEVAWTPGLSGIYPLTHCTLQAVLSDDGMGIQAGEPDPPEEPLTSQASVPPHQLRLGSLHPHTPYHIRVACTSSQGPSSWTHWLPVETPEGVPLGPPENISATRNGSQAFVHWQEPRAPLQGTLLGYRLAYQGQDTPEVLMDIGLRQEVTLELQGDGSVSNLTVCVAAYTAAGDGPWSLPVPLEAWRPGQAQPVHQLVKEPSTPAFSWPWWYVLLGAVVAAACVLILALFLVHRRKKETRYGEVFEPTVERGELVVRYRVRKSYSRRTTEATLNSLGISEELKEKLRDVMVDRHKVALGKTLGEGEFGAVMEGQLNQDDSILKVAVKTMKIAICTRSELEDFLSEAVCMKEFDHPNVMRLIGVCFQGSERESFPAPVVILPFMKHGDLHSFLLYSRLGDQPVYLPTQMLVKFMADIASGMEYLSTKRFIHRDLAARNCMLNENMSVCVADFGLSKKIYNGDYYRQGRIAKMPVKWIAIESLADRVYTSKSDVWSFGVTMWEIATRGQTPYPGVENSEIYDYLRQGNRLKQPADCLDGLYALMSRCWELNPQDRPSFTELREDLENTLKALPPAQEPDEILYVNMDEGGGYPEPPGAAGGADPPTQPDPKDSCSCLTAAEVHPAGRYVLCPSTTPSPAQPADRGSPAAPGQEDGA
Experiment [4] deals with Tyrosine-protein kinase SYK (Homo sapiens) (UniProt P43405). Kind of experiment: Inhibition of SYK (unknown origin) at 0.19 uM relative to control.
Experiment [5] deals with Protein kinase C eta type (Homo sapiens) (UniProt P24723). Kind of experiment: Inhibition of PKC-eta (unknown origin) at 0.19 uM relative to control.
In experiment [6] the target is T1, Protein kinase C iota type (Homo sapiens) (UniProt P41743).
T1 sequence (whole entry): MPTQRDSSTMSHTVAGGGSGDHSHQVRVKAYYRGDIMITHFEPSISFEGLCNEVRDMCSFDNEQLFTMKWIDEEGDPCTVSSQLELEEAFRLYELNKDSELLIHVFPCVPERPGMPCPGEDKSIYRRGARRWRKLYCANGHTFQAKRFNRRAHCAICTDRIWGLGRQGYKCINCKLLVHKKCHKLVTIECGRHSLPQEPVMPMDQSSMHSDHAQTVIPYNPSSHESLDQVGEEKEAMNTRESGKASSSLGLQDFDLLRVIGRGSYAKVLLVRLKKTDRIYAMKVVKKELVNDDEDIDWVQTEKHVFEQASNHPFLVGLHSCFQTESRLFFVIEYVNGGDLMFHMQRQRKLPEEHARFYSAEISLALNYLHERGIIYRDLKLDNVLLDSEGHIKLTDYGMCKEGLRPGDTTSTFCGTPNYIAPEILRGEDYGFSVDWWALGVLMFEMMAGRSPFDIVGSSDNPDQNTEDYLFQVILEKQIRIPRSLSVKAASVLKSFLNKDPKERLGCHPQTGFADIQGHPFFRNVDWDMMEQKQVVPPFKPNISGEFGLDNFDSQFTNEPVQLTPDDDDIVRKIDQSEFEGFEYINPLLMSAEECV
Kind of experiment: Inhibition of PKC-iota (unknown origin) at 0.19 uM relative to control.

In experiment [7] the target is Discoidin domain-containing receptor 2 (Homo sapiens) (UniProt Q16832). Kind of experiment: Inhibition of DDR2 (unknown origin) at 0.19 uM relative to control.
Experiment [8] addresses Epidermal growth factor receptor (Homo sapiens) (UniProt P00533). Kind of experiment: Inhibition of EGFR (unknown origin) at 0.19 uM relative to control.
In experiment [9] the target is Calcium/calmodulin-dependent protein kinase type II subunit beta (Homo sapiens) (UniProt Q13554). Kind of experiment: Inhibition of CaMK2-beta (unknown origin) at 0.19 uM relative to control.
Sequence of Calcium/calmodulin-dependent protein kinase type II subunit beta (Homo sapiens) (Q13554 whole entry): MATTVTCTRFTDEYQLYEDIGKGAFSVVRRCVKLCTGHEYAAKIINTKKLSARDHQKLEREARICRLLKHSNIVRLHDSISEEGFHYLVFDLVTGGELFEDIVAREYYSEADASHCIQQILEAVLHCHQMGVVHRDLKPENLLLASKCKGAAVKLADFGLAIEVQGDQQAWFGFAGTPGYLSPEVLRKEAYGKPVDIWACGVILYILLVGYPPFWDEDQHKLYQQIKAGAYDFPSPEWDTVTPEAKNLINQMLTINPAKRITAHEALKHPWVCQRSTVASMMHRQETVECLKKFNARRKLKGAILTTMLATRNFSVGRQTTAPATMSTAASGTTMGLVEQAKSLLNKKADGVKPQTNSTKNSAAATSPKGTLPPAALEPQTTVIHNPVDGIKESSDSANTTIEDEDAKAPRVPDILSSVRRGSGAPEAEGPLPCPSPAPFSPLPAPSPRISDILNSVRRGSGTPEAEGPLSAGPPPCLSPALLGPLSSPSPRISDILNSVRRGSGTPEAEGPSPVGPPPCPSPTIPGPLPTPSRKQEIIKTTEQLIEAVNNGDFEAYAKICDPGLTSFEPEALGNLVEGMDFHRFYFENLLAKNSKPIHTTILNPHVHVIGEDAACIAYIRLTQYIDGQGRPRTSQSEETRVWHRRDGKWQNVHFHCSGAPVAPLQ
The test system of experiment [10] is Epidermal growth factor receptor (Homo sapiens), P00533 [T790M]. Kind of experiment: Inhibition of EGFR T790M mutant (unknown origin) at 0.19 uM relative to control.
Experiment [11] has as its target Homeodomain-interacting protein kinase 1 (Homo sapiens) (UniProt Q86Z02). Kind of experiment: Inhibition of HIPK1 (unknown origin) at 0.19 uM relative to control.
Experiment [12] deals with T2, Serine/threonine-protein kinase D1 (Homo sapiens) (UniProt Q15139).
T2 sequence (whole entry): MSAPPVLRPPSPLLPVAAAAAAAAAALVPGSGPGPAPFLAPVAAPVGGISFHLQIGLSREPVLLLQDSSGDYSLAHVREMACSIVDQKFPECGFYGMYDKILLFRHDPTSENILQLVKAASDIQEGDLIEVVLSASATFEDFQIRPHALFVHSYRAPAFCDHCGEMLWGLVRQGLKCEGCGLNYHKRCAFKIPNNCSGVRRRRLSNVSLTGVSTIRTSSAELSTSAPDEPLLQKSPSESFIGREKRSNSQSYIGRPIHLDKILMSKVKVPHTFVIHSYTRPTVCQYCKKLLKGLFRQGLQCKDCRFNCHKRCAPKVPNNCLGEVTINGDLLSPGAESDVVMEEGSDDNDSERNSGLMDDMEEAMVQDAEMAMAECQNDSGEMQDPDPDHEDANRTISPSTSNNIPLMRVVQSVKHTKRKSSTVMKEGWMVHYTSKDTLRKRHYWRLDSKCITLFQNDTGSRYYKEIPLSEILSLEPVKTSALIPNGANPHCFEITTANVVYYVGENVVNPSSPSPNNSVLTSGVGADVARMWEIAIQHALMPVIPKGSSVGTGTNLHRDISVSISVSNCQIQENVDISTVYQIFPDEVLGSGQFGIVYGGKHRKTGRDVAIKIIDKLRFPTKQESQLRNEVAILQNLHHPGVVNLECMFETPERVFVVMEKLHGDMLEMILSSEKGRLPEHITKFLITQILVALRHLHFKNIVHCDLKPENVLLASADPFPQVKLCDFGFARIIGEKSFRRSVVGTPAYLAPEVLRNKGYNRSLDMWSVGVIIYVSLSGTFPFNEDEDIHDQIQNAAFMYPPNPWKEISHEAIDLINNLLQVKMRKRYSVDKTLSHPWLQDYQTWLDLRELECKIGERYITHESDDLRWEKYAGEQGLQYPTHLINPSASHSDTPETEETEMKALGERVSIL
Kind of experiment: Inhibition of PKD1 (unknown origin) at 0.164 uM relative to control.

Experiment [13] concerns Epidermal growth factor receptor (Homo sapiens), P00533 [L858R,T790M]. Kind of experiment: Inhibition of EGFR T790M/L858R double mutant (unknown origin) at 0.164 uM relative to control.
In experiment [14] the target is Casein kinase I isoform gamma-3 (Homo sapiens) (UniProt Q9Y6M4). Kind of experiment: Inhibition of CK1-gamma3 (unknown origin) at 0.164 uM relative to control.
Experiment [15] concerns the target Aurora kinase C (Homo sapiens) (UniProt Q9UQB9). Kind of experiment: Inhibition of AurC (unknown origin) at 0.164 uM relative to control.
Experiment [16] concerns the target Phosphorylase b kinase gamma catalytic chain, liver/testis isoform (Homo sapiens) (UniProt P15735). Kind of experiment: Inhibition of PhKg2 (unknown origin) at 0.164 uM relative to control.
Experiment [17] concerns the target BDNF/NT-3 growth factors receptor (Homo sapiens) (UniProt Q16620). Kind of experiment: Inhibition of NTRK2 (unknown origin) at 0.164 uM relative to control.
Experiment [18] deals with Mitogen-activated protein kinase 14 (Homo sapiens), Q16539 [T106M]. Kind of experiment: Inhibition of SAPK2a T106M mutant (unknown origin) at 0.164 uM relative to control.
Sequence of Mitogen-activated protein kinase 14 (Homo sapiens), Q16539 [T106M] (Q16539 whole entry T106M): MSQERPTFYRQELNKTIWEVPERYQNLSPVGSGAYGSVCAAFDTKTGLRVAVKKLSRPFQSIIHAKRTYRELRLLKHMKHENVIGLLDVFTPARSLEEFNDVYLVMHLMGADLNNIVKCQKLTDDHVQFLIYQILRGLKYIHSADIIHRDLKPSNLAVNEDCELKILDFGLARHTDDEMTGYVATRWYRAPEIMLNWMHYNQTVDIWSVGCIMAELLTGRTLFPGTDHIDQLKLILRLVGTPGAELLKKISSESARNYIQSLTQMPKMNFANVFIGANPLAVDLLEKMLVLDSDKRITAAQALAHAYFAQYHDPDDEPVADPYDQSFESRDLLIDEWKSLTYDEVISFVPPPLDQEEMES
In experiment [19] the target is Cyclin-dependent kinase 9 (Homo sapiens) (UniProt P50750). Kind of experiment: Inhibition of CDK9 (unknown origin) at 0.164 uM relative to control.
Sequence of Cyclin-dependent kinase 9 (Homo sapiens) (P50750 whole entry): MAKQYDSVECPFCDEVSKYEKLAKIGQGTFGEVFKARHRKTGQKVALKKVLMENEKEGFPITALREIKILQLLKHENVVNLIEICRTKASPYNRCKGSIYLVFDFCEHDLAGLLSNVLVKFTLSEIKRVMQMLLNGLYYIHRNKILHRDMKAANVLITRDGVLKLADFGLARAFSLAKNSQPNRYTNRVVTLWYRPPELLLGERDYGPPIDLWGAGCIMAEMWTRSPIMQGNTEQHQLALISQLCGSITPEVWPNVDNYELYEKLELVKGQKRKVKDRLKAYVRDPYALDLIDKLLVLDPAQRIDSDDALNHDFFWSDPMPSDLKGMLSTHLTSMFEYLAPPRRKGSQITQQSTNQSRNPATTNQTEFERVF
For experiment [20], the system named is Proto-oncogene tyrosine-protein kinase receptor Ret (Homo sapiens), P07949 [M918T]. Kind of experiment: Inhibition of RET M918T mutant (unknown origin) at 0.164 uM relative to control.
Sequence of Proto-oncogene tyrosine-protein kinase receptor Ret (Homo sapiens), P07949 [M918T] (P07949 whole entry M918T): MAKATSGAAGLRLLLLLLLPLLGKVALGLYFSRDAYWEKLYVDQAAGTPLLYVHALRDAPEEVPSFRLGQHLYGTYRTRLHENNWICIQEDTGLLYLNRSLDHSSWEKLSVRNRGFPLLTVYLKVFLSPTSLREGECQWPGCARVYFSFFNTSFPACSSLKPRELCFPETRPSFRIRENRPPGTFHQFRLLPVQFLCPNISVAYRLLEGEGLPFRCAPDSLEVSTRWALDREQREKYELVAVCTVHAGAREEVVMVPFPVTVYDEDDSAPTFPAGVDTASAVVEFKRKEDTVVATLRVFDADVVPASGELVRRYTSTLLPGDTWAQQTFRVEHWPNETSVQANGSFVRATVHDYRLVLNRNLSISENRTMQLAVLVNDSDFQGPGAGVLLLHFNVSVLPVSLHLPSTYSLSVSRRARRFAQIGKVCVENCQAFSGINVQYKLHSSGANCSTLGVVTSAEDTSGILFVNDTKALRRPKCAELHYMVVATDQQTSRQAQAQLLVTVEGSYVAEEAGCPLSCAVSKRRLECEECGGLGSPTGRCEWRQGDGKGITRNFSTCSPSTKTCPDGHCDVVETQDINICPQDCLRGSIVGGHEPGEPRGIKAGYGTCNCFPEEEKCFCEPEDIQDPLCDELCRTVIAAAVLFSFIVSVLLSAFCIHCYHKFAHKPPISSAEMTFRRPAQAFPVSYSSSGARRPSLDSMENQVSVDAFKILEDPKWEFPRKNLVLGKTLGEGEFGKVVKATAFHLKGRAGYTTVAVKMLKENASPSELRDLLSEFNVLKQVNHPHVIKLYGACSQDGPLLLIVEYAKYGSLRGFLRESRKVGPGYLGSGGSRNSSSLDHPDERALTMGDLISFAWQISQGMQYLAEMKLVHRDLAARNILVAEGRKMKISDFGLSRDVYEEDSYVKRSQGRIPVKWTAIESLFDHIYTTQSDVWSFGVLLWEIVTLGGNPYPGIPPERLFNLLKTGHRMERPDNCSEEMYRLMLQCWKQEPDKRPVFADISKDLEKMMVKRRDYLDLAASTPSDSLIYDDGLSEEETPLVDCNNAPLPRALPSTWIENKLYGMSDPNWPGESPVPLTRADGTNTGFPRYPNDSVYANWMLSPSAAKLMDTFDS
In experiment [21] the target is Ribosomal protein S6 kinase alpha-4 (Homo sapiens) (UniProt O75676). Kind of experiment: Inhibition of MSK2 (unknown origin) at 0.45 uM relative to control.

Sequence of Epidermal growth factor receptor (Homo sapiens) (P00533 whole entry): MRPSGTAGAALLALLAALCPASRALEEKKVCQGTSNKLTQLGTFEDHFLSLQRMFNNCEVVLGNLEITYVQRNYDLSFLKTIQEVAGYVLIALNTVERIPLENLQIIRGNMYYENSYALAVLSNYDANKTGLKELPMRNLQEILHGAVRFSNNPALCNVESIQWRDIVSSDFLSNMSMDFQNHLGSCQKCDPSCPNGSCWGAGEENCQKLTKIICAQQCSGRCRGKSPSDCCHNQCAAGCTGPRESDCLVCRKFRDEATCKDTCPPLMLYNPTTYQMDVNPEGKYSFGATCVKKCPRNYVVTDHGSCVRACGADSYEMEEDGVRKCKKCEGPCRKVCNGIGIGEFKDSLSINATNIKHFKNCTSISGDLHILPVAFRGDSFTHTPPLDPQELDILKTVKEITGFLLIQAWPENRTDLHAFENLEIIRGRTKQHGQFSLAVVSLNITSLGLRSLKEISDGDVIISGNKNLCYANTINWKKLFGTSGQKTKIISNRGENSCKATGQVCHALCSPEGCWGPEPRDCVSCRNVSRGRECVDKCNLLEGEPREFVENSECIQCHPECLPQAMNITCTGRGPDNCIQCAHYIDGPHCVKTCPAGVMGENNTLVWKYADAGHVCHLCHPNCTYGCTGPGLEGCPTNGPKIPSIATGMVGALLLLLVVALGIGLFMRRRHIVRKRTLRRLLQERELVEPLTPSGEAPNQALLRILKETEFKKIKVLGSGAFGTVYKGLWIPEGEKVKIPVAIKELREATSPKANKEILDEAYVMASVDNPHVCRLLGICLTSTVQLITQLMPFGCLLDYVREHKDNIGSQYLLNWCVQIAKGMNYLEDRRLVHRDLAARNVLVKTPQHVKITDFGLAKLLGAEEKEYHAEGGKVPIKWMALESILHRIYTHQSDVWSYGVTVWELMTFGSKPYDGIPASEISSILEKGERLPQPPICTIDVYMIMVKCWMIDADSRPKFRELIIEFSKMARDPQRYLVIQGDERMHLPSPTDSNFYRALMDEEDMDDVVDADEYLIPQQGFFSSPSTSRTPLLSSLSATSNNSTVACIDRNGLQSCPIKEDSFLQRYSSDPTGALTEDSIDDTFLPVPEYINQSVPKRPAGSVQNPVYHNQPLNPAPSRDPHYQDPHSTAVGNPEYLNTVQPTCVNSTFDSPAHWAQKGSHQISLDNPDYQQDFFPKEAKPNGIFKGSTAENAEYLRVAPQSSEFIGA
Sequence of Aurora kinase C (Homo sapiens) (Q9UQB9 whole entry, canonical isoform): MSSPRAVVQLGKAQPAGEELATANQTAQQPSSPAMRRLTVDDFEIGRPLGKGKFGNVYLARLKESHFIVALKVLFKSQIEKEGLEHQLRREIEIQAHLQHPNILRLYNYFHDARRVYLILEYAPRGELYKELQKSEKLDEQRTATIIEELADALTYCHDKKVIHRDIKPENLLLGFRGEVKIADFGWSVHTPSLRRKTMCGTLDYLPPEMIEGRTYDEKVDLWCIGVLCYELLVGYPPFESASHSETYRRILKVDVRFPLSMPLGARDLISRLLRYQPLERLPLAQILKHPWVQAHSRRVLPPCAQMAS

As to `Cc1[nH]nc(C2CC2)c1-c1ccc2c(-c3ccc(N4CCN(C)CC4)nc3)n[nH]c2c1`, the inhibition in [1] is 3%; in [2], 1.7%; in experiment [3] it was -2.3%; in experiment [4] it was 4.7%; in [5] it was 2.7%; in experiment [6], -7%. In addition, the inhibition in experiment [7] is 5.3%; in experiment [8], -6.7%; in [9], 1.7%; in [10], 0.7%; in experiment [11] it was 0.7%.
Regarding `COC(=O)Nc1cc(-c2c(C3CC3)n[nH]c2C)cc2[nH]ncc12`, the inhibition is -3% in experiment [12]; 1% in experiment [13]; 5.3% in [14]; 6.3% in [15]; -1.7% in experiment [16]; 4% in experiment [17]. For the same molecule, the results for the inhibition in [18], in [19] and in experiment [20] were 0.7%, 0% and 6.7%, respectively.
For the molecule `Cc1n[nH]c(C)c1-c1ccc2c(NC(=O)c3ccc(N4CCN(C)CC4)cc3)n[nH]c2c1`, in [21], the inhibition is -3.3%.
